Data on one compound can be found in paper PMC7933930, “Development of a small molecule that corrects misfolding and increases secretion of Z α1‐antitrypsin” (EMBO Molecular Medicine, 2021).

Test [1] has as its system Z α1‐antitrypsin secretion in iPSC‐derived human hepatocytes (ZZ genotype). Kind of test: Secretion of Z α1‐antitrypsin from ZZ iPSC‐derived human hepatocytes. The test is classed as cell-based. The following applies: for EC50: Hepatocyte. Here is the method: The ability of GSK716 to block Z α1‐antitrypsin polymerisation in the ER during folding was assessed by adding GSK716 to CHO‐TET‐ON‐Z‐A1AT cells (Ordóñez et al, 2013) with simultaneous induction of Z α1‐antitrypsin expression using doxycycline. […] Similar potency between the effects on secretion and polymerisation was observed throughout members of the lead series supporting the hypothesis that these effects are caused by the same pharmacological mode of action.
Figure 2 GSK716 inhibits polymerisation of Z α1‐antitrypsin in cell models of disease • A GSK716 was added to CHO‐TET‐ON‐Z‐A1AT cells (Ordóñez et al, 2013) with simultaneous induction of Z α1‐antitrypsin expression using doxycycline, and polymer load was quantified with the 2C1 monoclonal antibody that is specific to pathological polymers of α1‐antitrypsin (Miranda et al, 2010). […] Data were normalised to vehicle and a control compound from the GSK716 series at saturating concentration. […] It induced an approximately threefold increase in secreted levels of Z α1‐antitrypsin compared with vehicle control. […] For every time point, NP‐40‐soluble and NP‐40‐insoluble fractions were separated and immunoprecipitated with the 2C1 mAb and resolved by 4–12% w/v SDS–PAGE and α1‐antitrypsin detected by immunoblotting. […] Cell viability was measured by Cell Counting Kit‐8. […] Samples were resolved by 4–12% w/v acrylamide SDS–PAGE and detected by autoradiography. • H The graphs show the effect of GSK716 on intracellular and extracellular Z α1‐antitrypsin (mean ± SEM, n = 2).
The accumulation and clearance of Z α1‐antitrypsin polymer was measured with the 2C1 monoclonal antibody that is specific for polymerised antitrypsin in CHO‐TET‐ON‐Z‐α1AT cells (Ordóñez et al, 2013) and iPSC‐derived hepatocytes generated from a patient with a PiZZ genotype (Yusa et al, 2011). Secretion of Z α1‐antitrypsin was determined by TR‐FRET. Cell viability was analysed with Cell Counting Kit‐8 (Sigma) after treating the cells with 10 µM GSK716 or 0.1% v/v DMSO (vehicle) and an increasing concentration of tunicamycin (0.8–0.01 µg/ml).

The target in another test is neuroserpin (Homo sapiens, UniProt Q99574). The test is described as follows: Inhibitory activity of neuroserpin against trypsin. In kind it is biochemical. Here is the method: Figure 5 The effect of GSK716 on serpin inhibitory activity • α1‐Antitrypsin was incubated at varying molar ratios with the model protease bovine α‐chymotrypsin, and the residual protease activity determined. The intercept of the regression with the abscissa reflects the number of molecules of α1‐antitrypsin required to inhibit one molecule of chymotrypsin in the presence (+c) and absence (−c) of 50µM GSK716. Error bars reflect ± SEM of three independent experiments. • M α1‐antitrypsin was incubated with different molar ratios of chymotrypsin and resolved by SDS–PAGE. The position of covalent α1‐antitrypsin‐chymotrypsin complex (cpx), native (nat) and cleaved (clv) is shown. • The inhibitory activity of α1‐antichymotrypsin against chymotrypsin (ach + chym), neuroserpin against trypsin (neus + tryp), and antithrombin against thrombin (atiii + thrombin) was determined in the presence and absence of GSK716. Error bars reflect ± SD of two independent experiments.
GSK716 selectivity and PK properties were profiled in order to investigate the suitability of GSK716 for progression into in vivo studies and the potential for taking it forward as a clinical candidate for testing in humans. Since GSK716 results in loss of inhibitory activity of α1‐antitrypsin, the effect of the compound was assessed on other closely related serpins. […]

The target of the next test is PXR (human) (Homo sapiens, UniProt O75469). The test is described as follows: Off‐target panel: PXR (human). In kind it is cell-based. The following applies: Activator, read-out: Mean (PXC50) (converted). On the procedure: GSK716 selectivity and PK properties were profiled in order to investigate the suitability of GSK716 for progression into in vivo studies and the potential for taking it forward as a clinical candidate for testing in humans. Since GSK716 results in loss of inhibitory activity of α1‐antitrypsin, the effect of the compound was assessed on other closely related serpins. […] Furthermore, there were no off‐target effects in a panel of assays considered predictive of known safety liabilities that precluded further development of GSK716 (Table EV1).

Like-named read-outs stand apart in the source and are kept apart here.

neuroserpin, sequence (Q99574 17-410, species assumed): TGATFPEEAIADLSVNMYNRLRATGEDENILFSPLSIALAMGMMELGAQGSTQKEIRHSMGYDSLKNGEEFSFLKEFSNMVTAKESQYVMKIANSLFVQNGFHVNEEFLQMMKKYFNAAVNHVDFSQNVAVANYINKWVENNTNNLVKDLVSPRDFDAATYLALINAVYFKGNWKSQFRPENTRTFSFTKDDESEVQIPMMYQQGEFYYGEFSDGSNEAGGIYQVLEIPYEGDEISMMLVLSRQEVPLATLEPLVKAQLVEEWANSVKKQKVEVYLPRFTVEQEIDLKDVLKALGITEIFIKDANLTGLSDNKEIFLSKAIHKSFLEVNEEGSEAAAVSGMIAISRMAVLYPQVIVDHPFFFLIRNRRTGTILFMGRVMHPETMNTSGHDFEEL
PXR (human), sequence (O75469 whole entry): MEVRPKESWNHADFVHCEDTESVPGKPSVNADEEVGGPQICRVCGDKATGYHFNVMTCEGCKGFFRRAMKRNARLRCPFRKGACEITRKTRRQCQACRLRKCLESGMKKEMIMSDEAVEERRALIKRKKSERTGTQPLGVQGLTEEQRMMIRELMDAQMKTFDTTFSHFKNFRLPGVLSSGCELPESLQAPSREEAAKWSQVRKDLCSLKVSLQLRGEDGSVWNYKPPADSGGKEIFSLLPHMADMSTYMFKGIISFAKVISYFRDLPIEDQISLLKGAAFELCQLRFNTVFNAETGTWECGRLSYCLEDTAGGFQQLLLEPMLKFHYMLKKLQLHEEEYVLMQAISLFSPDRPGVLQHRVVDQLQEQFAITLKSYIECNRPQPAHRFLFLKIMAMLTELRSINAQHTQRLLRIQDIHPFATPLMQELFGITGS

In the case of `CCC[C@@H](NC(=O)c1cccc2c1CC(=O)N2)[C@@H](O)c1cccc(F)c1C` [GSK716], the EC50 in test [1] (ZZ iPSC‐derived human hepatocytes, n = 14, read-out: mean pEC50, secretion (converted)) was 316 nM; in test [1] (Homo sapiens, as quoted for the PK‐PD target concentration, cell system not stated there, read-out: cellular secretion assay EC50) it was 300 nM; at PXR (human) it was 20000 nM. The “increase in secreted levels of Z α1‐antitrypsin compared with vehicle control” value in test [1] (ZZ iPSC‐derived human hepatocytes) is “approximately threefold”. Besides, the “inhibitory activity of neuroserpin towards its cognate protease” value against neuroserpin was “did not affect”.
